Source: US20210087565A1, “ANTISENSE ANTIBIOTICS AND BACTERIAL SECRETION BASED DELIVERY SYSTEM TO ELIMINATE DRUG-RESISTANT BACTERIA” (priority 2018, published 2021)
Several values for one entry are separate records, joined by “and”; a condition that tells them apart may be missing. Equal values may be shown once. Entries after “also recorded” stand apart in the source; their conditions may differ.

Tests used:
[1] = test system: E. coli MG1655; assay: Growth curves and CFU of lab strain treated with PNA; type: cell-based, Escherichia coli; conditions: 10 μM
Procedure: FIG. 7. Dose response of various PNA. Optical density of a 1:10,000 dilution of MG6155 from overnight liquid culture, treated with various concentrations of antisense inhibitors was measured for 3 biological replicates with error bars as standard deviations. Normalized growth was measured as the optical density at 22 hours normalized to no treatment. An asterisk (*) indicates a significant difference (p<0.05) as compared to no treatment for each inhibitor.
FIG. 8. Antisense Inhibitors targeting novel pathways can inhibit growth of E. coli. z. (A) Growth curves of E. coli MG1655 from a 1:10,000 dilution from an overnight culture, normalized to time t=0 with 10 μM of respective antisense inhibitor. […] (B) Colony forming units per milliliter of MG1655 E. coli for respective treatment as a function of time. The CFU/mL at t=0 represents the starting culture after a 1:100,000 dilution from overnight culture. […] Significance is measured as p<0.05.
(§1) Bacterial Cell culture: The clinical isolates were obtained from the lab of Nancy Madinger at the University of Colorado Anschutz campus. Clinical isolates were grown in Cation Adjusted Mueller Hinton broth (CAMHB) (Becton, Dickinson and Company 212322) at 37° C. with 225 rpm shaking or on solid CAMHB with 1.5% agar at 37° C. Clinical isolates were maintained as freezer stocks in 90% CAMHB, 10% glycerol at −80° C. Freezer stocks were streaked out onto solid CAMHB and incubated for 16 h to produce single colonies prior to experiments. For each biological replicate, a single colony was picked from solid media and grown for 16 h in liquid CAMHB prior to experiments. Non-clinical isolates, such as E. coli MG1655 (ATCC700926) and Salmonella entorica serovar typhimurium SL1344, were cultured in liquid 2% lysogeny broth (LB) or on 2% LB with 1.5% agar for solid plates. S. typhimurium cultures were supplemented with 30 μg/mL streptomycin and SL1344 strains containing plasmids pFPV (SL1344-mCherry) or pRG1 modified with a lacIq promoter (SL1344-Holin) were supplemented with 100 μg/mL ampicillin. Freezer stocks were stored in 60% LB broth, 40% glycerol at −80° C. Freezer stocks were streaked out onto solid LB and incubated for 16 h to produce single colonies before experiments. For biological replicates, single colonies were started in liquid LB and grown for 16 hours prior to experiments. E. coli MG1655 PNA growth experiments were carried out in M9 media (1×M9 minimal media salts solution (MP Biomedicals), 2.0 mM MgSO4, and 0.1 mM CaCl2 in sterile water) with 0.4% glucose.
PNA growth assay: Biological replicates were diluted 1:10,000 into treatment condition in 384-well plates and measured for 24 h in a Tecan GENios at 562 nm with a bandwidth of 35 nm. Media absorbance blanks were subtracted from data prior to analysis. […]

[2] = test system: ESBL KPN; assay: PNA growth assay (optical density) on clinical isolate; type: cell-based, Klebsiella pneumoniae
Procedure: as §1
(§2) PNA growth assay: Biological replicates were diluted 1:10,000 into treatment condition in 384-well plates and measured for 24 h in a Tecan GENios at 562 nm with a bandwidth of 35 nm. Media absorbance blanks were subtracted from data prior to analysis. Normalized optical density (OD) data is shown normalized to the time point where the “no treatment” growth curves reached saturation phase which varied across biological replicates.

[3] = test system: 60 nucleotide single-stranded DNA fragments containing the complementation site; assay: Electrophoretic mobility shift assay (EMSA); type: binding; conditions: PNA 1 μM, DNA fragments 500 nM; complementary vs nonsense DNA
Procedure: FIG. 5. PNA binding to off-target start codons. (A) The set of potential PNA candidates identified from the Keio collection were screened against the entire E. coli MG1655 genome to identify the distribution of off-target alignments when allowing for zero base mismatches in the alignment (left) and one base mismatch (right). In the 0-basepair mismatch analysis, all chosen PNAs that were tested had no other start codon alignments within the genome, whereas in the one base mismatch alignment, the number of start codon alignments distribute across zero to five alignments. (B) Electrophoretic mobility shift assay (EMSA) depicting 60 nucleotide single-stranded DNA fragments containing the complementation site for their corresponding PNA. Nonsense DNA was a random 60 nucleotide single-stranded DNA sequence that contained no complementation sites for PNA binding. […] Bands corresponding to PNA+complementary DNA are shifted above the unbound DNA (red triangles). Corresponding PNA+nonsense DNA bands are seen in lanes 3 and 5, with lane 3 having slight cross-over bands coming from lane 2. All lanes are from the same gel.
Gel Shift Mobility Assay: Synthetic DNA oligonucleotides that are 57-60 nucleotides in length were incubated with their respective PNA binding site at 37° C. overnight. The concentration of the DNA fragments was held at 500 nM, while the PNA was always in excess at 1 μM. […]

[4] = test system: MDR STm; assay: PNA growth assay (optical density) on clinical isolate; type: cell-based, Salmonella enterica serovar typhimurium; conditions: for growth inhibition: MDR STm, 10 μM PNA, optical density vs no treatment at 16 hours; for monotherapy effect (in words): clinical isolate of Salmonella
Procedure: as §1, §2

[5] = test system: CRE E. coli; assay: as above; type: cell-based, Escherichia coli; conditions: for growth inhibition: 10 μM PNA, optical density vs no treatment at 16 hours
Procedure: as §1, §2

| Substance | effect on growth (in words) [1] | monotherapy effect (in words) ([2]; 10 μM) | binding specificity by EMSA (in words) [3] | growth inhibition [4] | monotherapy effect (in words) [4] | growth inhibition [5] | colony forming units per milliliter ([1]; within 2 hours of treatment) [CFU/mL] | growth inhibition ([2]; 10 μM PNA, optical density vs no treatment at 16 hours) | monotherapy effect (in words) ([5]; 10 μM) |
| --- | --- | --- | --- | --- | --- | --- | --- | --- | --- |
| α-lexA: 12-mer antisense PNA cGGAATGAAAGC (SEQ ID NO. 17) targeting lexA, conjugated to (KFF)3K cell penetrating peptide via AEEA-linker (antisense CGGAATGAAAGC; all peptide nucleic acid (PNA); (KFF)3K cell-penetrating peptide attached via AEEA linker) | complete suppression of cell growth | no or minimal growth inhibition | showed specificity to their targets; also recorded: show binding specificity to their target | 62±5.4% | effective against the clinical isolate of Salmonella | 51±8.1% |  |  |  |
| α-rpsD: 12-mer antisense PNA AGAAAATGGCAA (SEQ ID NO. 19) targeting rpsD, conjugated to (KFF)3K cell penetrating peptide via AEEA-linker (all peptide nucleic acid (PNA); (KFF)3K cell-penetrating peptide attached via AEEA linker) | effective in killing; also recorded: complete suppression of cell growth |  | showed specificity to their targets; also recorded: show binding specificity to their target | 99±0.1% and 99% | effective against the clinical isolate of Salmonella | 99±0.4% and 99% | 0 | 82%±8.8 | effective in killing |
